In article PMC12152147, “DDB1 engagement defines the selectivity of S656 analogs for cyclin K degradation over CDK inhibition” (EMBO Reports, 2025):
Where “and” joins values, the source holds several entries; their conditions need not be identical. Identical values can stand only once. Like-named read-outs stand apart in the source and are kept apart here.

Assays:
cyclin KeGFP = assay: Cyclin KeGFP reporter system (eGFP/mCherry MFI by flow cytometry);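 on % degradation cyclin K-eGFP: 10 μM compound for 3 h relative to DMSO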; assay type: cell-based, H. sapiens
Outline: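 Degradation read as eGFP-to-mCherry MFI ratio relative to DMSO controls, from flow cytometry of the selected G7 clone of OCI-AML5 cells transduced with the cyclin KeGFP reporter.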

CDK9/CyclinT = target: T1, CDK9/CyclinT (Homo sapiens, UniProt P50750); assay: CDK9/CyclinT in vitro kinase activity, single concentration 1 μM; assay type: biochemical
T1 construct: purchased BPS Bioscience 79628
Method: (§1) Kinase activity was assessed using the kinase assay kits from BPS Bioscience for CDK1, CDK9 and CDK12 with Kinase Glo MAX in duplicates. Compounds were tested at a single concentration of 1 μM for CDK1 and CDK9 activity, and in a dilution ranging from 0.64 nM to 50 μM for CDK12 activity. Chemiluminescence was read using the Neo Synergy BioTek plate reader.

[1] = test system: OCI-AML5 cells expressing shRNA targeting CUL4A or CUL4B; assay: Dose response in OCI-AML5 expressing shRNAs targeting CUL4A, CUL4B or control; assay type: cell-based, H. sapiens
CDK1 = target: T2, CDK1 (Homo sapiens, UniProt P06493); assay: CDK1 in vitro kinase activity, single concentration 1 μM; assay type: biochemical
T2 construct: purchased BPS Bioscience 79597
Method: as §1

OCI-AML5 cells = assay: Dose-response proliferative assay in OCI-AML5 (4 days, CellTiterGlo); assay type: cell-based, H. sapiens
Outline: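 Viability assessed after 4 days of compound exposure at 37 °C, 5% CO2. Compounds tested as 8 dilutions (1:4, 10 μM to 0.5 nM) on 300 OCI-AML5 cells/well grown in αMEM with 10% heat-inactivated FBS and 10 ng/mL GM-CSF.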

primary AML specimens = assay: Dose-response assays in primary AML specimens (6 days, CellTiterGlo); assay type: cell-based, human; settings: Homo sapiens, 144 h
Outline: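 Primary AML cells in IMDM/15% BIT with SCF, FLT3L, IL3, G-CSF, SR1 and UM729 were exposed to 8-point 1:4 dilutions (10 μM to 0.5 nM) for 6 days. Viability came from CellTiterGlo luminescence, with % inhibition versus DMSO (0.1%) fitted by nonlinear regression.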

[2] = test system: OCI-AML5 cells expressing shRNAs targeting CDK1, 2, 4, 7, 9, cyclin K; assay: Dose response in OCI-AML5 expressing shRNAs targeting CDK1, 2, 4, 7, 9, cyclin K or control; assay type: cell-based, H. sapiens
CDK12/Cyclin K = target: T3, CDK12/Cyclin K (Homo sapiens, UniProt Q9NYV4); assay: CDK12/CyclinK in vitro kinase assay (BPS kit, Kinase Glo MAX); assay type: biochemical; settings: for in vitro inhibition of CDK12/Cyclin K activity: in % (unit assumed)
T3 construct: purchased BPS Bioscience 78298
Method: as §1

T3 sequence (Q9NYV4 whole entry): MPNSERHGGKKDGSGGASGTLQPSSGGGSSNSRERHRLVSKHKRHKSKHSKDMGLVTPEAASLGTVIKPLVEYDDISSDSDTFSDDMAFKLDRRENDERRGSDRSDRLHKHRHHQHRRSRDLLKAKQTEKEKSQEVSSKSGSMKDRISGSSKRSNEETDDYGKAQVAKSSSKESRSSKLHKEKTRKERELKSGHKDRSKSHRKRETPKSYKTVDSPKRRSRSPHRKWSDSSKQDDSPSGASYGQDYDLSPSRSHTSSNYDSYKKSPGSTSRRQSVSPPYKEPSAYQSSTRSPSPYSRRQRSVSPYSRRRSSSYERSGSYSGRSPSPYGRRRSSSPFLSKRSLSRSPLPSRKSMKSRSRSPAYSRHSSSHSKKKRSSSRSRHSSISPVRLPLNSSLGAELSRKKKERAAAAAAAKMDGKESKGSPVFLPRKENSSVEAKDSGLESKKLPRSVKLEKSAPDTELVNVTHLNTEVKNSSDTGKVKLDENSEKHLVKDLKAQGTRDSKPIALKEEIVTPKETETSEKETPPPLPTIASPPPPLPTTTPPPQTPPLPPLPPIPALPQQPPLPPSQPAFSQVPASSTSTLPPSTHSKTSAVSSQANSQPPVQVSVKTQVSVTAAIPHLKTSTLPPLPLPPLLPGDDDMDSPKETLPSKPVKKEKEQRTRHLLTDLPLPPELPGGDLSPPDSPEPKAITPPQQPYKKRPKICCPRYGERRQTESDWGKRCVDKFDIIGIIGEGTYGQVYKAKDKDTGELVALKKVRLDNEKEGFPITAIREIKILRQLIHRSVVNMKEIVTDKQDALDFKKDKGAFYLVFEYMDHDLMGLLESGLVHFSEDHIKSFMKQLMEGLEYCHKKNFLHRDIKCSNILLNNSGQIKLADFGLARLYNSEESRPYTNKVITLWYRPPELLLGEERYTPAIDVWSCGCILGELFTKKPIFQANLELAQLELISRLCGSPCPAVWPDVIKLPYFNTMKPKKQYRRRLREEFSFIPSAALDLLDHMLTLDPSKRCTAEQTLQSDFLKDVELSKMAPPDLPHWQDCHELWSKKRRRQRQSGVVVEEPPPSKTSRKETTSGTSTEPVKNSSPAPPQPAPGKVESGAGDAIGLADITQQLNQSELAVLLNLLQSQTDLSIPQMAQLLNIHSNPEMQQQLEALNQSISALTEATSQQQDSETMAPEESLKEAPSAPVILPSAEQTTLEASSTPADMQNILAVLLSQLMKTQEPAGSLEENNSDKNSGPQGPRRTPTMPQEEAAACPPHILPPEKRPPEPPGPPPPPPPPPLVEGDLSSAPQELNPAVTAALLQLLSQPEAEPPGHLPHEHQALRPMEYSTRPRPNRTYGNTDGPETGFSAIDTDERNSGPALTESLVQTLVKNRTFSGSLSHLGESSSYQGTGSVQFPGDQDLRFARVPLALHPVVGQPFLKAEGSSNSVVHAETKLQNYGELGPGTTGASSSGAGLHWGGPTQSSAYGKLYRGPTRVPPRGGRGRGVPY
T3 sequence (O75909 whole entry partner): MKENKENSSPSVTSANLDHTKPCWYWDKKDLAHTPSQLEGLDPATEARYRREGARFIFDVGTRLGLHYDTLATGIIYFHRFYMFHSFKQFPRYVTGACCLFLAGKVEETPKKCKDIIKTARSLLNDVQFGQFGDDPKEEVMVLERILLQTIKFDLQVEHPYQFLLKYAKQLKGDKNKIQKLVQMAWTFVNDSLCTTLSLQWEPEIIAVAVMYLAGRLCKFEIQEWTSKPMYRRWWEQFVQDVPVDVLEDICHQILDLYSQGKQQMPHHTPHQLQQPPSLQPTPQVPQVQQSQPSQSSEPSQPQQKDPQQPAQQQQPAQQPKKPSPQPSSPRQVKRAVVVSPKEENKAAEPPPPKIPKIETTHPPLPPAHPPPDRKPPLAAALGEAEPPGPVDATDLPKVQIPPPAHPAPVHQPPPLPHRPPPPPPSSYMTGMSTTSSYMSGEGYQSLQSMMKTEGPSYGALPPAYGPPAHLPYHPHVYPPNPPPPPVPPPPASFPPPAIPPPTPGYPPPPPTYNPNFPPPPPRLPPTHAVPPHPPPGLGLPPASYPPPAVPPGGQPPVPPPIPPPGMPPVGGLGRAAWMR
T2 sequence (P06493 whole entry): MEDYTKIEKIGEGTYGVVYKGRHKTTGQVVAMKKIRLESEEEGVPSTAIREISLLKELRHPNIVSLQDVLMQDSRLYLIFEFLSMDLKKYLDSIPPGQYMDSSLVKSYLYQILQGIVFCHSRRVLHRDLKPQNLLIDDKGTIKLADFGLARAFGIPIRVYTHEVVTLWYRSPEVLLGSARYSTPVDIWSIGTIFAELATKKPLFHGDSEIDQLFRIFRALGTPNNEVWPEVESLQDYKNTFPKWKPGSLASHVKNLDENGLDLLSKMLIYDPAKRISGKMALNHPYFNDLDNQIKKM
T2 sequence (P14635 whole entry partner): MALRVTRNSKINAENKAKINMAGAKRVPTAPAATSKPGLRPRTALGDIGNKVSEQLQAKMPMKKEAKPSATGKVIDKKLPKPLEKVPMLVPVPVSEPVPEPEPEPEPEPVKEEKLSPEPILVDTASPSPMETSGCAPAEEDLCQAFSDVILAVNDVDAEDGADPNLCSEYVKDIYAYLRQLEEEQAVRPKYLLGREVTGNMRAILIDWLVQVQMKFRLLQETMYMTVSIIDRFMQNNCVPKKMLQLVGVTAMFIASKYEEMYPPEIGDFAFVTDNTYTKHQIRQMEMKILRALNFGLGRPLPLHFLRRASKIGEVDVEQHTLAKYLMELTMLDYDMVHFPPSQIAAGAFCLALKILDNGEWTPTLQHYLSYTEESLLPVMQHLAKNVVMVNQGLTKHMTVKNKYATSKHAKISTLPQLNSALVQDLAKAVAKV
T1 sequence (P50750 whole entry): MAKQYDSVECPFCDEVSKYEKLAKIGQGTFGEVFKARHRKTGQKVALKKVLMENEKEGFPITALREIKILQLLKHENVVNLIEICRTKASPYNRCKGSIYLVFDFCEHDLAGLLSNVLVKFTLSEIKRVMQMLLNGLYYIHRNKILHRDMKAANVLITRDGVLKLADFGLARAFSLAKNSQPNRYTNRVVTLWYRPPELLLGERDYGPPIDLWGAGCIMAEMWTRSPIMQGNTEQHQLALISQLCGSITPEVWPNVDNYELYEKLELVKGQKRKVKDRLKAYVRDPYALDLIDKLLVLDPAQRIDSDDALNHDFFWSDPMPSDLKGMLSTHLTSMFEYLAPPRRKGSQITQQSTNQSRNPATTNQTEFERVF
T1 sequence (O60563 whole entry partner): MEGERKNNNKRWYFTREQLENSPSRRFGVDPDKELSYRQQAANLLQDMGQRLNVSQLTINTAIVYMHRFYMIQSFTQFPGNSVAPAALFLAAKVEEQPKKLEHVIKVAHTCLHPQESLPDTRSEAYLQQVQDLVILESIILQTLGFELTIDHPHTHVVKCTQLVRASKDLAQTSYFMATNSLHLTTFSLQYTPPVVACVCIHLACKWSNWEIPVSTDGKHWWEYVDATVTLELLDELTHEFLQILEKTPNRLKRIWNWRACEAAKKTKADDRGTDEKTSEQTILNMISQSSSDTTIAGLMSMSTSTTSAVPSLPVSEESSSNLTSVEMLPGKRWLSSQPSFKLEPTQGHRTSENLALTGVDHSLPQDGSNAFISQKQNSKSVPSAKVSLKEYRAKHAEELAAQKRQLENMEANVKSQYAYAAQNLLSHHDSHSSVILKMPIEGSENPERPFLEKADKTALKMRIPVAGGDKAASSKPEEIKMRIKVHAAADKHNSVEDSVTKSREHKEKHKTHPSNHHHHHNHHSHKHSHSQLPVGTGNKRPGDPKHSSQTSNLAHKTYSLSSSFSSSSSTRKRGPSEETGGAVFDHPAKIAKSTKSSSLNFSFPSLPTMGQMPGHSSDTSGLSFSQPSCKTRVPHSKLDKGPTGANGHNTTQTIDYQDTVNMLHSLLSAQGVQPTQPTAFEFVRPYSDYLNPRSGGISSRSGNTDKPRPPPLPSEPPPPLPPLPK

in vitro inhibitory activity for CDK9 (CDK9/CyclinT; 1 μM): displays in vitro inhibitory activity
inhibition at 1 µM (CDK9/CyclinT; single concentration 1 μM): 59%
in vitro inhibitory activity for CDK1 (CDK1; 1 μM): displays in vitro inhibitory activity
inhibition at 1 µM (CDK1; single concentration 1 μM): 70%
IC50 (OCI-AML5 cells; Homo sapiens, OCI-AML-5, 96 h, 4 days incubation, read-out: IC50 OCI-AML5): 743 nM
IC50 (OCI-AML5 cells; Homo sapiens, OCI-AML-5, 96 h, OCI-AML5, regular media, 4 days, read-out: S656 IC50, Media): 949 nM
IC50 (OCI-AML5 cells; OCI-AML5, regular media, 4 days, read-out: S656 IC50, Media): 675 nM and 712 nM
IC50 ([2]; Homo sapiens, OCI-AML-5, 96 h, OCI-AML5, 4 days, read-out: IC50, sh CDK1): 499 nM
IC50 ([2]; Homo sapiens, OCI-AML-5, 96 h, OCI-AML5, 4 days, read-out: IC50, sh CDK2): 842 nM
IC50 ([2]; Homo sapiens, OCI-AML-5, 96 h, OCI-AML5, 4 days, read-out: IC50, sh CDK4): 577 nM
IC50 ([2]; Homo sapiens, OCI-AML-5, 96 h, OCI-AML5, 4 days, read-out: IC50, sh CDK7): 791 nM
IC50 ([2]; Homo sapiens, OCI-AML-5, 96 h, OCI-AML5, 4 days, read-out: IC50, sh CDK9): 548 nM
IC50 ([2]; Homo sapiens, OCI-AML-5, 96 h, OCI-AML5, 4 days, read-out: IC50, sh Cyclin K): 175 nM
IC50 ([2]; Homo sapiens, OCI-AML-5, 96 h, OCI-AML5, 4 days, read-out: IC50, sh ctrl): 756 nM
IC50 ([2]; Homo sapiens, OCI-AML-5, OCI-AML5 expressing shRNA CCNK (cyclin K), read-out: IC50 shRNA CCNK): 194 nM
IC50 ([2]; Homo sapiens, OCI-AML-5, OCI-AML5 expressing shRNA CDK1, read-out: IC50 shRNA CDK1): 478 nM
IC50 ([2]; Homo sapiens, OCI-AML-5, OCI-AML5 expressing shRNA CDK2, read-out: IC50 shRNA CDK2): 794 nM
IC50 ([2]; Homo sapiens, OCI-AML-5, OCI-AML5 expressing shRNA CDK4, read-out: IC50 shRNA CDK4): 690 nM
IC50 ([2]; Homo sapiens, OCI-AML-5, OCI-AML5 expressing shRNA CDK9, read-out: IC50 shRNA CDK9): 548 nM
IC50 ([2]; OCI-AML5, 4 days, read-out: IC50, sh CDK1): 480 nM
IC50 ([2]; OCI-AML5, 4 days, read-out: IC50, sh CDK2): 928 nM and 685 nM
IC50 ([2]; OCI-AML5, 4 days, read-out: IC50, sh CDK4): 744 nM and 662 nM
IC50 ([2]; OCI-AML5, 4 days, read-out: IC50, sh CDK7): 774 nM and 662 nM
IC50 ([2]; OCI-AML5, 4 days, read-out: IC50, sh CDK9): 589 nM and 628 nM
IC50 ([2]; OCI-AML5, 4 days, read-out: IC50, sh Cyclin K): 288 nM and 186 nM
IC50 ([2]; OCI-AML5, 4 days, read-out: IC50, sh ctrl): 713 nM and 664 nM
in vitro inhibition of CDK12/Cyclin K activity (CDK12/Cyclin K; Log10 (uM) 0.30103): 29.97 and 30.05 and 16.95
in vitro inhibition of CDK12/Cyclin K activity (CDK12/Cyclin K; Log10 (uM) 1): 64.47 and 62.45 and 59.28
in vitro inhibition of CDK12/Cyclin K activity (CDK12/Cyclin K; Log10 (uM) 1.69897): 82.67 and 75.84 and 109.95
IC50 (CDK12/Cyclin K; read-out: IC50, in vitro inhibition of CDK12/Cyclin K activity): 6000 nM
Compound: CN(C)c1ccc(CC(=O)Nc2ncc(SCc3cccnc3)s2)cc1 [S656]
% cyclin KeGFP degradation (cyclin KeGFP; 3 h, 10 μM, compared to DMSO, OCI-AML5 G7 clone): 75%
MFI of cyclin KeGFP over mCherry (cyclin KeGFP; OCI-AML5 G7 clone, 3 h, 10 μM, normalized to DMSO (=100)): 23.8 and 23.9 and 23.3 and 23.2 and 22.8
% degradation cyclin K-eGFP (cyclin KeGFP; cyclin K-eGFP reporter): 75%
potency upon CUL4A or CUL4B downregulation (for SNS-032, THZ531 also DDB1 depletion) ([1]; OCI-AML5, 4 days): impaired
Ratio shCUL4A/shCTRL ([1]; ratio of IC50 in shCUL4A vs shCTRL OCI-AML5 cells): 2.79
IC50 (primary AML specimens; primary AML specimen 03H109, 6 days, read-out: IC50): 761 nM
IC50 (primary AML specimens; primary AML specimen 04H055, 6 days, read-out: IC50): 1040 nM
IC50 (primary AML specimens; primary AML specimen 04H096, 6 days, read-out: IC50): 846 nM
IC50 (primary AML specimens; primary AML specimen 04H138, 6 days, read-out: IC50): 1990 nM
IC50 (primary AML specimens; primary AML specimen 05H113, 6 days, read-out: IC50): 897 nM
IC50 (primary AML specimens; primary AML specimen 05H149, 6 days, read-out: IC50): 1380 nM
IC50 (primary AML specimens; primary AML specimen 05H193, 6 days, read-out: IC50): 999 nM
IC50 (primary AML specimens; primary AML specimen 06H088, 6 days, read-out: IC50): 1260 nM
IC50 (primary AML specimens; primary AML specimen 06H117, 6 days, read-out: IC50): 983 nM
IC50 (primary AML specimens; primary AML specimen 06H151, 6 days, read-out: IC50): 683 nM
IC50 (primary AML specimens; primary AML specimen 07H003, 6 days, read-out: IC50): 2190 nM
IC50 (primary AML specimens; primary AML specimen 07H131, 6 days, read-out: IC50): 2680 nM
IC50 (primary AML specimens; primary AML specimen 07H144, 6 days, read-out: IC50): 999 nM
IC50 (primary AML specimens; primary AML specimen 07H155, 6 days, read-out: IC50): 2440 nM
IC50 (primary AML specimens; primary AML specimen 08H018, 6 days, read-out: IC50): 2210 nM
IC50 (primary AML specimens; primary AML specimen 08H021, 6 days, read-out: IC50): 1010 nM
IC50 (primary AML specimens; primary AML specimen 08H056, 6 days, read-out: IC50): 2130 nM
IC50 (primary AML specimens; primary AML specimen 08H063, 6 days, read-out: IC50): 2380 nM
IC50 (primary AML specimens; primary AML specimen 08H085, 6 days, read-out: IC50): 1010 nM
IC50 (primary AML specimens; primary AML specimen 08H108, 6 days, read-out: IC50): 826 nM
IC50 (primary AML specimens; primary AML specimen 08H118, 6 days, read-out: IC50): 887 nM
IC50 (primary AML specimens; primary AML specimen 09H016, 6 days, read-out: IC50): 974 nM
IC50 (primary AML specimens; primary AML specimen 09H070, 6 days, read-out: IC50): 2240 nM
IC50 (primary AML specimens; primary AML specimen 10H014, 6 days, read-out: IC50): 852 nM
IC50 (primary AML specimens; primary AML specimen 10H046, 6 days, read-out: IC50): 972 nM
IC50 (primary AML specimens; primary AML specimen 10H107, 6 days, read-out: IC50): 1560 nM
IC50 (primary AML specimens; primary AML specimen 10H127, 6 days, read-out: IC50): 1440 nM
IC50 (primary AML specimens; primary AML specimen 10H161, 6 days, read-out: IC50): 1170 nM
IC50 (primary AML specimens; primary AML specimen 10H174, 6 days, read-out: IC50): 887 nM
IC50 (primary AML specimens; primary AML specimen 11H008, 6 days, read-out: IC50): 1450 nM
IC50 (primary AML specimens; primary AML specimen 11H019, 6 days, read-out: IC50): 1090 nM
IC50 (primary AML specimens; primary AML specimen 11H170, 6 days, read-out: IC50): 2330 nM
IC50 (primary AML specimens; primary AML specimen 11H217, 6 days, read-out: IC50): 1240 nM
IC50 (primary AML specimens; primary AML specimen 11H232, 6 days, read-out: IC50): 1130 nM
IC50 (primary AML specimens; primary AML specimen 12H033, 6 days, read-out: IC50): 2380 nM
IC50 (primary AML specimens; primary AML specimen 12H055, 6 days, read-out: IC50): 1390 nM
IC50 (primary AML specimens; primary AML specimen 12H148, 6 days, read-out: IC50): 1480 nM
IC50 (primary AML specimens; primary AML specimen 13H053, 6 days, read-out: IC50): 2190 nM
IC50 (primary AML specimens; primary AML specimen 15H045, 6 days, read-out: IC50): 680 nM
IC50 (primary AML specimens; primary AML specimen 17H065, 6 days, read-out: IC50): 1550 nM
IC50 (primary AML specimens; read-out: median IC50 in a panel of 40 primary AMLs, 6 days): 1210 nM
Class ([2]; class from shRNA IC50 profile and cyclin K-eGFP degradation): mixed 1-2
